# Results published in patent US20030109550A1, “Substituted indazole compounds for the treatment of inflammation” (priority 2001, published 2003).
# Columns and labels:
# [1] = target: T1, IKK heterodimer (rhIKK1/IKK2 heterodimer) (Homo sapiens, UniProt O14920+O15111); assay: IKK heterodimer Resin Enzyme Assay; format: biochemical; conditions: biotinylated IκBα peptide 5 μM, 1 μM ATP, 25° C., 30 min; read-out: HetD (IKK heterodimer Resin Enzyme Assay expressed as IC50)
# T1 construct: made in house; host or cells: insect cells (baculovirus coinfection; SF9 cell paste)
# T1 sequence (O15111 1-745): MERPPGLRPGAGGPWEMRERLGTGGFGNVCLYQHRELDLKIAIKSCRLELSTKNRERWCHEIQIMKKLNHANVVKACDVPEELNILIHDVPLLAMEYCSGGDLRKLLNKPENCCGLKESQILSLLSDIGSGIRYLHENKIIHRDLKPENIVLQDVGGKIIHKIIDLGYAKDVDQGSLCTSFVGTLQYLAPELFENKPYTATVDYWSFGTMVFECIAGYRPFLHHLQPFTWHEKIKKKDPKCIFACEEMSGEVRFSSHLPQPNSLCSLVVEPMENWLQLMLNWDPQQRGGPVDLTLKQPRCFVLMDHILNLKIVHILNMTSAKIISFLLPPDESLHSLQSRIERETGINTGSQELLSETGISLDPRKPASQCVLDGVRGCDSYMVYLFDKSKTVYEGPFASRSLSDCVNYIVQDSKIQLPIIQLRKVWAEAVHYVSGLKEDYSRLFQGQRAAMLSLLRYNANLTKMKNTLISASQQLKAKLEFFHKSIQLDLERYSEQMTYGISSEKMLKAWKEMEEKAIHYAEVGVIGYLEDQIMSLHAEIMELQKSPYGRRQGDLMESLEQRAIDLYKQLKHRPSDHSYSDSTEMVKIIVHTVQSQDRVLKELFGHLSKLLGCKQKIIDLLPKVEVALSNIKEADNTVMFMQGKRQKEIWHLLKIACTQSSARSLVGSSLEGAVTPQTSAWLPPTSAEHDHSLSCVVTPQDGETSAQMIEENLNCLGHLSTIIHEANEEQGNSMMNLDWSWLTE
# T1 sequence (O14920 1-756): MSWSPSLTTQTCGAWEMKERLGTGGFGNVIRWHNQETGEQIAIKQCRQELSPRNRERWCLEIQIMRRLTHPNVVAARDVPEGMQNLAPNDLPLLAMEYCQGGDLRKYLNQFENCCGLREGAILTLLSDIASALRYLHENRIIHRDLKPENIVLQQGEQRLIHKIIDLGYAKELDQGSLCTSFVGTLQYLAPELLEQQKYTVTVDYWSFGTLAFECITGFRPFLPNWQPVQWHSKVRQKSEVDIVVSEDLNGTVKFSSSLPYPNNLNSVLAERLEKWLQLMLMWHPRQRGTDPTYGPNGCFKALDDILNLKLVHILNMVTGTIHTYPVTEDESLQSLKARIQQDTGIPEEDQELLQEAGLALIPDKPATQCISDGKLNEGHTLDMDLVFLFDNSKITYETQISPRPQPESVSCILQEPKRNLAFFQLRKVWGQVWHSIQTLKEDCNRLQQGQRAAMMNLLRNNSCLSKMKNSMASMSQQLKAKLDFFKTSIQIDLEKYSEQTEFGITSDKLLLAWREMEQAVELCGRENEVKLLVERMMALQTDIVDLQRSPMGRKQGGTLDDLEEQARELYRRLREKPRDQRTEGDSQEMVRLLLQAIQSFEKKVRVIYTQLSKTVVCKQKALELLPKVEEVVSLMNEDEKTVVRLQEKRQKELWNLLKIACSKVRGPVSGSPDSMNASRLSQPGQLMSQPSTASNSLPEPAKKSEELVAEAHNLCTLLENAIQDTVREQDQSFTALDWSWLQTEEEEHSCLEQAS
# Description: cDNAs of human IKK1 and IKK2 were amplified by reverse transcriptase-polymerase chain reaction from human placental RNA (Clonetech). hIKK1 was subcloned into pFastBac HTa (Life Technologies) and expressed as N-terminal His6-tagged fusion protein. The hIKK2 cDNA was amplified using a reverse oligonucleotide primer which incorporated the peptide sequence for a FLAG-epitope tag at the C-terminus of the IKK2 coding region (DYKDDDDKD). The hIKK2:FLAG cDNA was subcloned into the baculovirus vector pFastBac. The rhIKK2 ([…]) mutant was constructed in the same vector used for wild type rhIKK2 using a QuikChange™ mutagenesis kit (Stratagene) Viral stocks of each construct were used to infect insect cells grown in 40L suspension culture. […] Cell lysates were stored at −80° C. until purification of the recombinant proteins was undertaken as described in the succeeding sections.
# Isolation of rhIKK1/IKK2 Heterodimer
# The heterodimer enzyme was produced by coinfection in a baculovirus system (FLAG IKK2/IKK1 His; MOI=0.1 and I=72 hrs). Infected cells were centrifuged and the cell pellet (10.0 g) was suspended in 50 ml of buffer A. The protein suspension was microfluidized and centrifuged at 100,000×g for 45 min. Imidazole was added to the supernatant to a final concentration of 10 mM. The protein was allowed to bind 25 ml of Ni-NTA resin by mixing for 2 hrs. The protein-resin slurry was poured into a 25 ml column and washed with 250 ml of buffer A containing 10 mM imidazole followed by 125 ml of buffer A containing 50 mM imidazole. Buffer A, containing 300 mM imidazole, was then used to elute the protein. A 75 ml pool was collected and NP-40 was added to a final concentration of 0.1%. The protein solution was then dialyzed against buffer B. The dialyzed heterodimer enzyme was then allowed to bind to 25 ml of anti-FLAG M2 agarose affinity gel overnight with constant mixing. The protein-resin slurry was then centrifuged for 5 min at 2,000 rpm. The supernatant was collected and the resin re-suspended in 100 ml of buffer C containing 0.1% NP-40. The resin was washed with 375 ml of buffer C containing 0.1% NP-40. The protein-resin was poured into a 25 ml column and the enzyme eluted using buffer B containing FLAG peptide. Enzyme fractions (100 ml) were collected and concentrated to 20 ml using an Amicon membrane with molecular weight cut-off of 30 kDa. Bovine serum albumin was added to the concentrated enzyme to final concentration of 0.1%. The enzyme was then aliquoted and stored at −80° C.
# IKK heterodimer Resin Enzyme Assay
# IKK heterodimer kinase activity was measured using a biotinylated IκBα peptide (Gly-Leu-Lys-Lys-Glu-Arg-Leu-Leu-Asp-Asp-Arg-His-Asp-Ser32-Gly-Leu-Asp-Ser36-Met-Lys-Asp-Glu-Glu) (American Peptide Co.). […] ATP was measured using a Top-Count NXT (Packard).
SMILES,IC50 [1] [µM],melting point [°C]
"Cc1cc(-c2ccc3c(C(N)=O)nn(-c4ccc(S(N)(=O)=O)cc4)c3c2)ccc1F [Example 5, 1-[4-(aminosulfonyl)phenyl]-6-(4-fluoro-3-methylphenyl)-1H-indazole-3-carboxamide]",,300 to 302
"CN(C)c1cccc(-c2ccc3c(C(N)=O)nn(-c4ccc(S(N)(=O)=O)cc4)c3c2)c1 [Example 6, 1-[4-(aminosulfonyl)phenyl]-6-[3-(dimethylamino)phenyl]-1H-indazole-3-carboxamide]",> 100,237 to 238
"CNc1cccc(-c2ccc3c(C(N)=O)nn(-c4ccc(S(N)(=O)=O)cc4)c3c2)c1 [Example 7, 1-[4-(aminosulfonyl)phenyl]-6-[3-(methylamino)phenyl]-1H-indazole-3-carboxamide]",,159 to 160
"NC(=O)c1nn(-c2ccc(S(N)(=O)=O)cc2)c2ccncc12 [Example 8, 1-[4-(aminosulfonyl)phenyl]-1H-pyrazolo[4,3-c]pyridine-3-carboxamide]",,301 to 302
"NC(=O)c1nn(-c2ccc(S(N)(=O)=O)cc2)c2cc(-c3ccccc3)ccc12 [Example 10, 1-[4-(aminosulfonyl)phenyl]-6-phenyl-1H-indazole-3-carboxamide]",,232 to 234
"COc1cccc(-c2ccc3c(C(N)=O)nn(-c4ccc(S(N)(=O)=O)cc4)c3c2)c1 [Example 11, 1-[4-(aminosulfonyl)phenyl]-6-(3-methoxyphenyl)-1H-indazole-3-carboxamide]",1,229 to 230
"NC(=O)c1nn(-c2ccc(S(N)(=O)=O)cc2)c2cc(Cc3ccccc3)ccc12 [Example 12, 1-[4-(aminosulfonyl)phenyl]-6-benzyl-1H-indazole-3-carboxamide]",,207 to 209
"CCOc1ccc2c(C(N)=O)nn(-c3ccc(S(N)(=O)=O)cc3)c2c1 [Example 13, 1-[4-(aminosulfonyl)phenyl]-6-ethoxy-1H-indazole-3-carboxamide]",,213 to 214
"NC(=O)c1nn(-c2ccc(S(N)(=O)=O)cc2)c2cc(-c3cccnc3)ccc12 [Example 15, 1-[4-(aminosulfonyl)phenyl]-6-pyridin-3-yl-1H-indazole-3-carboxamide]",,310 to 313

# The remaining lines, values ahead:
IC50 [1] [µM],melting point [°C],SMILES
> 100,258 to 259,"COc1ccc(-c2ccc3c(C(N)=O)nn(-c4ccc(S(N)(=O)=O)cc4)c3c2)cc1 [Example 1, 1-[4-(aminosulfonyl)phenyl]-6-(4-methoxyphenyl)-1H-indazole-3-carboxamide]"
,314 to 315,"NC(=O)c1nn(-c2ccc(S(N)(=O)=O)cc2)c2cc(-c3ccc(F)cc3)ccc12 [Example 2, 1-[4-(aminosulfonyl)phenyl]-6-(4-fluorophenyl)-1H-indazole-3-carboxamide]"
,261 to 263,"Cc1cccc(-c2ccc3c(C(N)=O)nn(-c4ccc(S(N)(=O)=O)cc4)c3c2)c1 [Example 3, 1-[4-(aminosulfonyl)phenyl]-6-(3-methylphenyl)-1H-indazole-3-carboxamide]"
> 100,262 to 263,"CC(C)(C)c1ccc(-c2ccc3c(C(N)=O)nn(-c4ccc(S(N)(=O)=O)cc4)c3c2)cc1 [Example 4, 1-[4-(aminosulfonyl)phenyl]-6-(4-tert-butylphenyl)-1H-indazole-3-carboxamide]"
,251 to 252,"Cc1ccc2c(C(N)=O)nn(-c3ccc(S(N)(=O)=O)cc3)c2c1 [Example 9, 1-[4-(aminosufony)phenyl]-6-methyl-1H-indazole-3-carboxamide]"
,249 to 251,"CCc1ccc2c(C(N)=O)nn(-c3ccc(S(N)(=O)=O)cc3)c2c1 [Example 14, 1-[4-(aminosulfonyl)phenyl]-6-ethyl-1H-indazole-3-carboxamide]"
